According to patent US20100152270A1, “PESTICIDE COMPOSITION COMPRISING A STRIGOLACTONE DERIVATIVE AND A FUNGICIDE COMPOUND” (priority 2007, published 2010):
Like-named read-outs stand apart in the source and are kept apart here.

What was measured:
Type in all cases: cell-based
Gibberella zeae = conditions: 3 days incubation, 100% = no fungal growth
Pyricularia oryzae = conditions: 3 days incubation, 100% = no fungal growth
Rhizoctonia solani = Rhizoctonia solani microtest in liquid medium (PDB), microtitre plates, optical density; conditions: 5 days incubation, 100% = no fungal growth
Botrytis cinerea = Botrytis cinerea microtest in liquid medium (PDB), microtitre plates, optical density; conditions: 5 days incubation, 100% = no fungal growth

**Q.** How did the Efficacy in % (Gibberella zeae; 0.0000001 ppm) turn out when `CC1=CC(O/C=C2/C(=O)OC3c4ccccc4CC23)OC1=O` (stereo not shown) [Compound A] was run?
**A.** 35%

**Q.** What about the Efficacy in % (Pyricularia oryzae; 0.00003 ppm) of the same compound?
**A.** 4%

**Q.** And the Efficacy in % (Rhizoctonia solani; 0.0000001 ppm)?
**A.** 26%

**Q.** What about the Efficacy in % (Botrytis cinerea; 0.0000001 ppm) of the same compound?
**A.** 8%

**Q.** What about the Efficacy in % (Botrytis cinerea; 0.00003 ppm) of the same compound?
**A.** 1%

**Q.** Which Efficacy in % (Rhizoctonia solani; 0.001 ppm) does the source give for `COCC(=O)N(c1c(C)cccc1C)C(C)C(=O)OC` (stereo not shown) [Metalaxyl] here?
**A.** 27%

**Q.** `Cc1nn(C)c(F)c1C(=O)Nc1ccccc1C(C)CC(C)C` (stereo not shown) [N-[2-(1,3-Dimethylbutyl)phenyl]-5-fluor-1,3-dimethyl-1H-pyrazol-4-carboxamid] was tested. Which Efficacy in % (Botrytis cinerea; 0.001 ppm) did it give?
**A.** 17%

**Q.** `OC(Cc1ccccc1Cl)(Cn1nc[nH]c1=S)C1(Cl)CC1` (stereo not shown) [Prothioconazole] was tested. Which Efficacy in % (Botrytis cinerea; 0.3 ppm) did it give?
**A.** 40%

**Q.** For `CC(C)(C)C(O)(CCc1ccc(Cl)cc1)Cn1cncn1` (stereo not shown) [Tebuconazole], which Efficacy in % (Gibberella zeae; 0.001 ppm) is on record?
**A.** 23%

**Q.** `CON=C(C(=O)OC)c1ccccc1CON=C(C)c1cccc(C(F)(F)F)c1` [Trifloxystrobin] was tested. Which Efficacy in % (Pyricularia oryzae; 0.3 ppm) did it give?
**A.** 58%
